Results published in US4829061A, “1-(4-Hydroxy-3,5-di-tert.-butylbenzoyl)homopiperazine, various derivatives thereof, processes for the preparation of these compounds, medicaments containing them, and their use” (Hoechst Aktiengesellschaft, priority 1987, dated 1989).

Experiments:
cGvH disease = test: Chronic graft-versus-host (cGvH) reaction in the mouse; type: in vivo, mouse (female (DBA/2×C57Bl/6)F1); settings: 6 weeks from day 21
Method: (§1) The antiinflammatory effect of the compounds of the formula I, according to the invention, was tested on adjuvant arthritis, and the effect on forms of rheumatic disorders having a severe course (chronic graft-versus-host diseases and autoimmune diseases mediated by immune complexes) was tested on the chronic graft-versus-host (cGvH) reaction in the mouse and in the reverse passive Arthus reaction in the rat in accordance with the animal models described below. The tolerability was determined by determining the toxicity in rats, namely by continuous administration for 14 days.
The features of graft-versus-host disease, which is based on an immune reaction originating from the transplant and directed against the host tissue, are, in the form having an acute course which almost always ends fatally, enlargement of the spleen, hepatomegaly, lymph node hypertrophy, hemolytic anemia, low immunoglobulin and complement levels, and diminished immunoreactivity. The chronic form of the disease, which has a somewhat milder course, results in lymphadenopathy, immune complex glomerulonephritis and excessive formation of non-organ-specific autoantibodies. The clinical picture of systemic lupus erythematosus (SLE), which is likewise one of the autoimmune diseases, has similar features.
Investigation of the compounds used according to the invention on the course of the cGvH disease induced in response to two injections of spleen and thymus cells, mixed together, in female mice of the (DBA/2×C57Bl/6)F1 generation was carried out by the design of experiment described by S. Popovic and R. R. Bartlett (Agents and Actions 21 (1987), 284-286), with intravenous administration, at a time interval of 7 days, of, in each case, 5×10^7 DBA/2 cells, likewise obtained from female donor animals, in 0.2 ml of culture medium. For reliable assessment of the course and appearance of the disease, a group of healthy animals was included as negative controls in all the experiments. The 6-week oral treatment of the animals with the disease took place from day 21 after the first donor cell injection, with administration once a day of the test substance or the pure vehicle (positive controls). […]
The action of the product was assessed on the basis of the inhibition of proteinuria and the cGvH index. The animals with the disease develop, as a consequence of the damage to nephrons due to deposition of immune complexes on the basement membranes of the glomeruli, a pronounced proteinuria which correlates with the extent of the glomerulonephritis and can easily be quantified by the increase in the amount of protein excreted with the urine. The second measured parameter, the cGvH index, is based on the great enlargement of the spleen (splenomegaly) caused by the cGvH reaction. […]

[1] = Determination of toxicity in the rat, 14 days (weight gain); type: in vivo, rat (male and female Wistar); settings: 50 or 75 mg/kg p.o. each day for 14 days
Method: as §1
Groups of 10 male and female Wistar rats were fed each day for a period of 14 days with 50 or 75 mg/kg p.o., and were weighed every 2 days. The experiment was terminated after 14 days, and the weight gain was determined. The same number of rats not treated with the products acted as controls. […] This is regarded as a critical parameter for the tolerability of a compound.

[2] = system: reverse passive Arthus reaction; test: Reverse passive Arthus reaction in the rat; type: in vivo, rat (female and male Sprague-Dawley); settings: 1 hour before induction, paw volume 4 hours after ovalbumin challenge
Method: as §1
The experimental animals used were female and male Sprague-Dawley rats with a body weight between 80 and 100 g. The rats were divided into groups each comprising 8 animals. 1 hour before the Arthus reaction was induced by injection of 0.1 ml of an anti-rat IgG solution (0.6 mg/ml) into the right rear paw, the particular test substance or the pure vehicle (positive controls) was administered orally. Sodium chloride solution was injected into the left paw. A group of non-sensitized animals (negative controls) was likewise treated with ovalbumin in order to be able to rule out non-specific reactions to the protein. The parameter used to measure the action of the products was the percentage change in the increase in paw volume compared with that in the control group (positive controls) which, although sensitized, was untreated, 4 hours after the ovalbumin challenge, when the swelling had reached its maximum.

[3] = system: adjuvant-induced arthritis in the rat; test: Adjuvant arthritis (method of Pearson), paw volume; type: in vivo, rat (male, Wistar-Lewis strain); settings: 50 mg/kg p.o. once a day, day 1 to 5; reduction in increase in paw volume vs control
Method: as §1
The investigations were carried out by the method of Pearson (Arthrit. Rheum. 2 (1959) page 44). The test animals used were male rats of a Wistar-Lewis strain with a body weight between 130 and 200 g. The compounds to be tested were administered orally (p.o.) in doses of 50 mg per kg of body weight once a day from the 1st to the 5th day of the experiment. The animals in a control group received only the vehicle. Each product and control group comprised 8 animals. The criterion used for an effect was the percentage reduction in the increase in paw volume compared with that in the untreated control group.

| SMILES | % inhibition Proteinuria (cGvH disease; 5 mg/kg/day p.o.) [%] | % inhibition cGvH index (cGvH disease; 5 mg/kg/day p.o.) [%] | % inhibition Proteinuria (cGvH disease; 20 mg/kg/day p.o.) [%] | % inhibition cGvH index (cGvH disease; 20 mg/kg/day p.o.) [%] | change in the weights (weight gain) [1] | Reverse passive Arthus reaction, % inhibition ([2]; 100 mg/kg p.o.) [%] | % inhibition in paw volume day 5 [3] [%] | Reverse passive Arthus reaction, % inhibition ([2]; 20 mg/kg p.o.) [%] | Reverse passive Arthus reaction, % inhibition ([2]; 25 mg/kg p.o.) [%] |
| --- | --- | --- | --- | --- | --- | --- | --- | --- | --- |
| CC(C)(C)c1cc(C(=O)N2CCCN(C(=O)OCc3ccccc3)CC2)cc(C(C)(C)C)c1O [Example 1, 1-(4-Hydroxy-3,5-di-tert.-butylbenzoyl)-4-benzyloxycarbonylhomopiperazine] | 100 | 57 | 80 | 75 | no significant change in the weights | 25 | 25 | – | – |
| CC(C)(C)c1cc(C(=O)N2CCCNCC2)cc(C(C)(C)C)c1O [Example 2, 1-(4-Hydroxy-3,5-di-tert.-butylbenzoyl)homopiperazine] | – | – | – | – | no significant change in the weights | – | 34 | 28 | 37 |
